Like-named read-outs stand apart in the source and are kept apart here. Each block holds one molecule with its values, some of them ahead of it.
Experiments:
[1] = biological target: T1, baculovirus-expressed ALK (Homo sapiens, UniProt Q9UM73); assay: ALK Kinase Assay (ELISA-type, time-resolved fluorescence); type: biochemical
T1 construct: host or cells: baculovirus expression system
Outline: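 Plates coated with phospholipase C-γ substrate (10 μg/mL in TBS); reaction started with 30 ng/ml ALK and run 15 min at 37° C. Phosphorylated substrate detected with Eu-N1-labeled PT66 antibody. IC50 from sigmoidal variable-slope fit of percent inhibition vs log concentration.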

[2] = biological target: T2, c-Met (cytoplasmic domain) (Homo sapiens, UniProt P08581); assay: c-Met Kinase Assay (same methods as for ALK, with modifications); type: biochemical
T2 construct: 10 ng/mL c-Met (cytoplasmic domain, Invitrogen Corporation #PV3143); purchased Invitrogen Corporation PV3143
Outline: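 Plates were coated with phospholipase C-γ substrate (10 μg/mL) in TBS, and the reaction was started with 10 ng/mL c-Met cytoplasmic domain and run 15 min at 37 °C. Phosphoproduct was detected with Eu-N1-labelled PT66 antibody. IC50 came from a variable-slope sigmoidal fit of percent inhibition vs log concentration.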

[3] = 1 μM ATP (Km level), read-out: ALK Activity (ALK Kinase Inhibition, IC50)
[4] = 1 μM ATP (Km level), read-out: cMet Activity (c-Met Kinase Inhibition, IC50)
[5] = ALK kinase inhibition, 1 μM ATP (Km level), read-out: ALK Activity
[6] = c-Met kinase inhibition, 1 μM ATP (Km level), read-out: cMet Activity
[7] = ALK kinase inhibition, 1 μM ATP, read-out: ALK Activity
[8] = c-Met kinase inhibition, 1 μM ATP, read-out: cMet Activity
[9] = 1 μM ATP (Km level), 30 ng/ml ALK, 37° C., 15 minutes, read-out: ALK Activity (ALK kinase inhibition, IC50 class)
[10] = 1 μM ATP (Km level), 10 ng/mL c-Met, read-out: cMet Activity (c-Met kinase inhibition, IC50 class)

T1 sequence (Q9UM73 19-1620): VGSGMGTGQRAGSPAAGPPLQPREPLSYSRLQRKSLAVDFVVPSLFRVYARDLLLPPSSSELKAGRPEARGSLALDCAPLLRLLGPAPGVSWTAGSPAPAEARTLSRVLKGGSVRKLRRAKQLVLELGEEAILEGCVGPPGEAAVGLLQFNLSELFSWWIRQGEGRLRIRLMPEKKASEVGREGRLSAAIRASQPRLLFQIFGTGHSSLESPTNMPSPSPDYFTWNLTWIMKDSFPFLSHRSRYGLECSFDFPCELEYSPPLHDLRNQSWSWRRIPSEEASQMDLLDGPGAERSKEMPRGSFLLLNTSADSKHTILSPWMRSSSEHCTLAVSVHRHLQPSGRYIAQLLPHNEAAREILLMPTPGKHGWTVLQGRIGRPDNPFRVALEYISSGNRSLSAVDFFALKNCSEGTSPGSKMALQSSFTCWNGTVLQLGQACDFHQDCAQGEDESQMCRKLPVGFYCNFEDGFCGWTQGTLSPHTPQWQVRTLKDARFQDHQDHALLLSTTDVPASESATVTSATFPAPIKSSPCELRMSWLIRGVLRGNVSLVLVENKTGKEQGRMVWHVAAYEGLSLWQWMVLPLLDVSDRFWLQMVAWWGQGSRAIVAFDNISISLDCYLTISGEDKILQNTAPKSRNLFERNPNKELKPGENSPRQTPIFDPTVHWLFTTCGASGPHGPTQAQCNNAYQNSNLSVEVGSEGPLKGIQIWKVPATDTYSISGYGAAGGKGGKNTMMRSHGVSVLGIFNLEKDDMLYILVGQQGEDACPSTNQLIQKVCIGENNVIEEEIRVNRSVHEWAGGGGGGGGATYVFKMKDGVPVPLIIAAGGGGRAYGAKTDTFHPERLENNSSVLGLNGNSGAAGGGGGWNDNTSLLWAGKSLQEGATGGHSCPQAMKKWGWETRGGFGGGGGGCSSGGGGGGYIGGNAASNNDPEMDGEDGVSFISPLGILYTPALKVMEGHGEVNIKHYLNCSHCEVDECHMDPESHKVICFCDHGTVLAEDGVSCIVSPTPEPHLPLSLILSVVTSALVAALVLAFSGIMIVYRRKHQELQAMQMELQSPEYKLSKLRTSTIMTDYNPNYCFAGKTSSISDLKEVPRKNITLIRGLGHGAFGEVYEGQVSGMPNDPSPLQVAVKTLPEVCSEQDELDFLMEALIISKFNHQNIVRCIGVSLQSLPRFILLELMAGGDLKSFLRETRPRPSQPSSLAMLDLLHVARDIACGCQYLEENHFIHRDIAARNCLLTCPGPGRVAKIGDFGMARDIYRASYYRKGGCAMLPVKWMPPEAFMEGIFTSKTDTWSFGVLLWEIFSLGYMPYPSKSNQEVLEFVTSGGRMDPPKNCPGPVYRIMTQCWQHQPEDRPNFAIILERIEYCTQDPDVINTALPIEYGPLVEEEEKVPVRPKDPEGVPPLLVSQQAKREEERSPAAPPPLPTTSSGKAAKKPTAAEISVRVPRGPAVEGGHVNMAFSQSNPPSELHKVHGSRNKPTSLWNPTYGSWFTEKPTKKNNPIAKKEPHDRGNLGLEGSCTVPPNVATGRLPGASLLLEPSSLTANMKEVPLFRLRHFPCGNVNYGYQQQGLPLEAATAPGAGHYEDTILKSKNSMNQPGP
T2 sequence (P08581 956-1390 limits assumed): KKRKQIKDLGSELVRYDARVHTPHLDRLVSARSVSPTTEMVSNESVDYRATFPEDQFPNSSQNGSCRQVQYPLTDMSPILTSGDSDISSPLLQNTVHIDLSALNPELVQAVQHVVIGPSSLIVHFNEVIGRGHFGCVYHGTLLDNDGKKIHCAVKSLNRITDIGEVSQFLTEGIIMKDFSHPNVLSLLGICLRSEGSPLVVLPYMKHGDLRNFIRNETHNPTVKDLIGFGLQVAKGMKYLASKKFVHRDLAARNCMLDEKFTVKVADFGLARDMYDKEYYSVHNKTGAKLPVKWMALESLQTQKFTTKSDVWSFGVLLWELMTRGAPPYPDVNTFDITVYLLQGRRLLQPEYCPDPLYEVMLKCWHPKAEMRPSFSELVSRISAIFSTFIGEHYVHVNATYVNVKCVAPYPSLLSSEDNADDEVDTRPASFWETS

IC50 [1, 3]: < 100 nM
IC50 [2, 4]: 1000 to 10000 nM
SMILES: CCN1CCN(CC)c2cc(Nc3ncc(Cl)c(Nc4ccc(N5CCOCC5)cc4OC)n3)ccc2C1 [Example 712, 5-Chloro-N*2*-(1,4-diethyl-2,3,4,5-tetrahydro-1H-benzo[e][1,4]diazepin-8-yl)-N*4*-(2-methoxy-4-morpholin-4-yl-phenyl)-pyrimidin-2,4-diamine]

SMILES: CNS(=O)(=O)c1ccccc1Nc1nc(Nc2ccc3c(c2)C2CCC3CNC2)ncc1Cl (stereo not drawn) [Example 285, 2-[2-(10-Aza-tricyclo[6.3.2.0*2,7*]trideca-2,4,6-trien-4-ylamino)-5-chloro-pyrimidin-4-ylamino]-N-methyl-benzenesulfonamide]
IC50 [1, 5]: < 100 nM
IC50 [2, 6]: < 100 nM

IC50 [1, 7]: < 100 nM
IC50 [2, 8]: 1000 to 10000 nM
SMILES: CCC(=O)OCCN1CCc2cc(Nc3ncc(Cl)c(Nc4ccccc4S(=O)(=O)N(C)C)n3)c(OC)cc2CC1 [Example 1546, Propionic acid 2-{7-[5-chloro-4-(2-dimethylsulfamoyl-phenylamino)-pyrimidin-2-ylamino]-8-methoxy-1,2,4,5-tetrahydro-3-benzazepin-3-yl}-ethyl ester]

IC50 [1, 9]: < 100 nM
IC50 [2, 10]: < 100 nM
SMILES: CCNC(=O)c1cccc(F)c1Nc1nc(Nc2ccc3c(c2)CCN(CC(=O)N(C)C)CC3)ncc1Cl [Example 1367, 2-[5-Chloro-2-(3-dimethylcarbamoylmethyl-2,3,4,5-tetrahydro-1H-benzo[d]azepin-7-ylamino)-pyrimidin-4-ylamino]-N-ethyl-3-fluoro-benzamide]

IC50 [1, 9]: < 100 nM
IC50 [2, 10]: > 10000 nM
SMILES: CCN1C(=O)[C@@H](N2CCOCC2)CCc2c1ccc(Nc1ncc(Cl)c(N[C@H]3[C@@H](C(N)=O)[C@@H]4C=C[C@H]3C4)n1)c2OC (single isomer, unassigned) [Example 1345]

IC50 [1, 9]: < 100 nM
IC50 [2, 10]: > 10000 nM
SMILES: COc1cc2c(cc1Nc1ncc(Cl)c(N[C@H]3[C@@H](C(N)=O)[C@@H]4C=C[C@H]3C4)n1)CCC(NCC(F)F)CC2 (single isomer, unassigned) [Example 1054]

IC50 [1, 3]: < 100 nM
IC50 [2, 4]: > 10000 nM
SMILES: CNC(=O)c1ccccc1Nc1nc(Nc2ccc3c(c2OC)CCC(=O)CC3)ncc1Cl [Example 868, 2-[5-Chloro-2-(1-methoxy-7-oxo-6,7,8,9-tetrahydro-5H-benzocyclohepten-2-ylamino)-pyrimidin-4-ylamino]-N-methyl-benzamide]

IC50 [1, 5]: 1000 to 10000 nM
IC50 [2, 6]: < 100 nM
SMILES: CCN1C(=O)CCCc2ccc(Nc3ncc(Cl)c(Nc4c(C)cccc4C(=O)NC)n3)cc21 [Example 360, 2-[5-Chloro-2-(1-ethyl-2-oxo-2,3,4,5-tetrahydro-1H-benzo[b]azepin-8-ylamino)-pyrimidin-4-ylamino]-3,N-dimethyl-benzamide]

IC50 [1, 7]: 100 to 1000 nM
IC50 [2, 8]: < 100 nM
SMILES: CCN1CC(=O)N(CC)c2cc(Nc3ncc(Cl)c(Nc4c(C)csc4C(=O)NC)n3)ccc2C1 [Example 1874, 3-[5-chloro-2-(1,4-diethyl-2-oxo-2,3,4,5-tetrahydro-1H-benzo[e][1,4]diazepin-8-ylamino)-pyrimidin-4-ylamino]-4-methyl-thiophene-2-carboxylic acid methylamide]

IC50 [1, 3]: < 100 nM
IC50 [2, 4]: > 10000 nM
SMILES: Cn1ccnc1-c1ccccc1Nc1nc(Nc2ccc3c(c2)CCCC(=O)N3)ncc1Cl [Example 994, 7-{5-Chloro-4-[2-(1-methyl-1H-imidazol-2-yl)-phenylamino]-pyrimidin-2-ylamino}-1,3,4,5-tetrahydro-benzo[b]azepin-2-one]

IC50 [1, 3]: 100 to 1000 nM
IC50 [2, 4]: < 100 nM
SMILES: CNC(=O)c1cccc(C)c1Nc1nc(Nc2ccc3c(c2)CCN(CCOC)CC3)ncc1C(F)(F)F [Example 922, 2-{2-[3-(2-Methoxyethyl)-2,3,4,5-tetrahydro-1H-benzo[d]azepin-7-ylamino]-5-trifluoromethylpyrimidin-4-ylamino}-3,N-dimethylbenzamide]

IC50 [1, 3]: < 100 nM
IC50 [2, 4]: < 100 nM
SMILES: CCNC(=O)c1ccccc1Nc1nc(Nc2ccc3c(c2)N(CC)CCN(CC)C3)ncc1Cl [Example 718, 2-[5-Chloro-2-(1,4-diethyl-2,3,4,5-tetrahydro-1H-1,4-benzodiazepin-8-ylamino)-pyrimidin-4-ylamino]-N-ethyl-benzamide]

IC50 [1, 9]: 1000 to 10000 nM
IC50 [2, 10]: > 10000 nM
SMILES: O=C1CCCc2ccc(Nc3ncc(Cl)c(Nc4c(F)cccc4OCCCOCc4ccccc4)n3)cc2N1 [Example 1283, 8-{4-[2-(3-Benzyloxy-propoxy)-6-fluoro-phenylamino]-5-chloro-pyrimidin-2-ylamino}-1,3,4,5-tetrahydro-1-benzazepin-2-one]

IC50 [1, 9]: 100 to 1000 nM
IC50 [2, 10]: 1000 to 10000 nM
SMILES: CC(C)S(=O)(=O)c1cccc(F)c1Nc1nc(Nc2ccc3c(c2)NC(=O)CCC3)ncc1Cl [Example 1255, 8-{5-Chloro-4-[2-fluoro-6-(propane-2-sulfonyl)-phenylamino]-pyrimidin-2-ylamino}-1,3,4,5-tetrahydro-1-benzazepin-2-one]

IC50 [1, 5]: 100 to 1000 nM
IC50 [2, 6]: 100 to 1000 nM
SMILES: CNC(=O)c1ccccc1Nc1nc(Nc2ccc3c(c2)C2CNCC3O2)ncc1Cl (stereo not drawn) [Example 65, 2-[5-Chloro-2-(12-oxa-10-aza-tricyclo[6.3.1.0*2,7*]dodeca-2(7),3,5-trien-4-ylamino)-pyrimidin-4-ylamino]-N-methyl-benzamide]

IC50 [1, 5]: < 100 nM
IC50 [2, 6]: 1000 to 10000 nM
SMILES: CNS(=O)(=O)c1ccccc1Nc1nc(Nc2ccc3c(c2)COC[C@@H]2CCCN32)ncc1Cl [Example 13, 2-{5-Chloro-2-[(S)-(2,3,3a,4-tetrahydro-1H,6H-5-oxa-10b-aza-benzo[e]azulen-8-yl)amino]-pyrimidin-4-ylamino}-N-methyl-benzenesulfonamide]

IC50 [1, 3]: < 100 nM
IC50 [2, 4]: > 10000 nM
SMILES: CCN1CCc2cc(Nc3ncc(Cl)c(N[C@H]4[C@@H](C(N)=O)[C@@H]5C=C[C@H]4C5)n3)c(OC)cc2CC1 [Example 773, (1S,2S,3R,4R)-3-[5-Chloro-2-(3-ethyl-8-methoxy-2,3,4,5-tetrahydro-1H-benzo[d]azepin-7-ylamino)-pyrimidin-4-ylamino]-bicyclo[2.2.1]hept-5-ene-2-carboxylic acid amide]

IC50 [1, 3]: 100 to 1000 nM
IC50 [2, 4]: > 10000 nM
SMILES: CNC(=O)c1ccccc1Nc1nc(Nc2cccc3c2N(C)CCN(C)C3=O)ncc1Cl [Example 541, 2-[5-Chloro-2-(1,4-dimethyl-5-oxo-2,3,4,5-tetrahydro-1H-benzo[e][1,4]diazepin-9-ylamino)-pyrimidin-4-ylamino]-N-methyl-benzamide]

IC50 [1, 9]: 100 to 1000 nM
IC50 [2, 10]: 1000 to 10000 nM
SMILES: COCCN1CCc2ccc(Nc3ncc(Cl)c(Nc4ccccc4C(=O)NCCN4CCN(C)CC4)n3)cc2CC1 [Example 1402, 2-{5-Chloro-2-[3-(2-methoxy-ethyl)-2,3,4,5-tetrahydro-1H-benzo[d]azepin-7-ylamino]-pyrimidin-4-ylamino}-N-[2-(4-methyl-piperazin-1-yl)-ethyl]-benzamide]

IC50 [1, 3]: 100 to 1000 nM
IC50 [2, 4]: 1000 to 10000 nM
SMILES: COc1ccc(Nc2nc(Nc3ccc4c(c3)CCC(O)CC4)ncc2Cl)c2c1CN(C)C2=O (stereo not drawn) [Example 938, 7-[5-Chloro-2-(7-hydroxy-6,7,8,9-tetrahydro-5H-benzocyclohepten-2-ylamino)-pyrimidin-4-ylamino]-4-methoxy-2-methyl-2,3-dihydro-isoindol-1-one]

IC50 [1, 3]: < 100 nM
IC50 [2, 4]: 1000 to 10000 nM
SMILES: COc1c(Nc2ncc(Cl)c(N[C@H]3[C@@H](C(N)=O)[C@@H]4C=C[C@H]3C4)n2)ccc2c1CCC(N1CCCC(O)C1)CC2 (stereo partly drawn) [Example 909, (1S,2S,3R,4R)-3-{5-Chloro-2-[7-(3-hydroxy-piperidin-1-yl)-1-methoxy-6,7,8,9-tetrahydro-5H-benzocyclohepten-2-ylamino]-pyrimidin-4-ylamino}-bicyclo[2.2.1]hept-5-ene-2-carboxylic acid amide]

IC50 [1, 9]: < 100 nM
IC50 [2, 10]: > 10000 nM
SMILES: CCN1C(=O)C(NC(=O)CN(C)C)CCc2c1ccc(Nc1ncc(Cl)c(Nc3ccccc3S(=O)(=O)N(C)C)n1)c2OC (stereo not drawn) [Example 1356, N-{7-[5-Chloro-4-(2-dimethylsulfamoyl-phenylamino)-pyrimidin-2-ylamino]-1-ethyl-6-methoxy-2-oxo-2,3,4,5-tetrahydro-1H-benzo[b]azepin-3-yl}-2-dimethylamino-acetamide]

IC50 [1, 3]: < 100 nM
IC50 [2, 4]: > 10000 nM
SMILES: COc1cc2c(cc1Nc1ncc(Cl)c(Nc3ccc(N4CC5CC4CO5)cc3OC)n1)CCN(CC(=O)N(C)C)CC2 (stereo not drawn) [Example 794, 2-(7-{5-Chloro-4-[2-methoxy-4-(2-oxa-5-aza-bicyclo[2.2.1]hept-5-yl)-phenylamino]-pyrimidin-2-ylamino}-8-methoxy-1,2,4,5-tetrahydro-benzo[d]azepin-3-yl)-N,N-dimethyl-acetamide]

IC50 [1, 3]: 100 to 1000 nM
IC50 [2, 4]: > 10000 nM
SMILES: COc1c(Nc2ncc(Cl)c(Nc3ccccc3C(=O)OC(C)C)n2)ccc2c1CCCC(N1CCOCC1)C2 (stereo not drawn) [Example 948, 2-[5-Chloro-2-(1-methoxy-6-morpholin-4-yl-6,7,8,9-tetrahydro-5H-benzocyclohepten-2-ylamino)-pyrimidin-4-ylamino]-benzoic acid isopropyl ester]

From patent US8148391B2 (Cephalon, Inc., priority 2006, dated 2012)
